Melting point data for 92 compounds are collected here from a melting point compilation (Tetko et al.; mined from patent text by program, amines drawn as free bases though some values may be those of a salt).

As for `Cc1cc2nc3c4cc(O)ccc4n(CCN(C)C)c3nc2cc1C`, the melting point (as a rule, the temperature of the solid-liquid transition) was above 260 °C. As to `Cc1[nH]c2cc(C(=O)c3ccccc3)ccc2c1C=O`, the melting point was 192 to 196 °C. In turn, `COC(=O)Nc1cc2c(=O)n(NS(C)(=O)=O)c(=O)[nH]c2cc1C(F)(F)F` returned a melting point of 232 to 240 °C. The figure for `COc1ccccc1C1=CCN(C[C@@H](CC2CCCCC2)NC(=O)C2(C)CCCCC2)CC1` is 93 to 95 °C; for `Cc1ccc2c(c1)c1c(n2Cc2ccccc2)CCCC1C(=O)O` (configuration not stated) it is 200 to 208 °C.

Take `CCOC(=O)C(CC(=O)c1cccc(OC)c1)(NC(C)=O)C(=O)OCC`: the melting point lay within 119 to 120 °C. `Cc1ccc(CC(C)NCC(O)c2cc3ccccc3o2)cc1` (configuration not stated) gave a melting point of 88 to 100 °C.

With `CCOc1nn(-c2ccc(C(F)(F)F)cn2)cc1CCCOc1ccc(CCC(=O)O)c(OC)c1`, the melting point was 120 to 121 °C. The compound `COc1cc2c(cc1OC)-c1cc(=O)n(C(C)C)c(=O)n1CC2` registered a melting point of 190 to 192 °C.

On to `COC(=O)c1ccc(OCCCNC(=O)C[C@H]2O[C@H](c3cccc(OC)c3OC)c3cc(Cl)ccc3N(CC(C)(C)CO)C2=O)cc1`, for which the melting point was in the range of 147 to 149 °C. Under `O=Cc1ccc(NCc2ccc(F)cc2)cn1` stands 167 to 169 °C; under `C[C@@H](c1ccc(Br)cc1)N(CC[C@](O)(CC(C)(C)O)c1ccccc1)C(=O)Oc1ccccc1`, 129 to 131 °C. Take `Cc1cc(O)nc(C(Cl)(Cl)Cl)n1`: the melting point is 173 to 174 °C. For the compound `O=C(NC1CCCc2cc(C(=O)O)ccc21)OCc1ccccc1` (configuration not stated), the melting point lay within 203 to 205 °C. With `CCOc1ccc2c(c1)n(C1CCCCC1)c(=O)n2S(=O)(=O)c1ccc(C(=O)OCc2ccccc2)cc1OC`, the melting point was found to be 131 °C. Under `COC(=O)C1CCc2cc(OCc3ccccc3)c(OCc3ccccc3)cc2C1O` (configuration not stated) stands 121 to 124 °C. Consider `CCCCCCOC(C)c1ccc(-c2ccc(OCc3ccccc3)cc2)cc1` (single isomer, unassigned; (+)), for which the melting point fell in the range of 61 to 63 °C. The figure for `COc1cc2nc(N3CCN(c4ccnc(N(C)C5CCCC5)n4)CC3)nc(N)c2cc1OC` is 333 to 334 °C; for `CCCOc1ccc(CO)nc1Cl` it is 59 to 60 °C; for `Nc1ccc(CC(=O)N2CCCC2)cc1N` it is 105 to 108 °C. Under `Cc1ncnc(C)c1N` stands 98 to 100 °C; under `Cn1nc(C(F)(F)F)n(-c2ccc(F)cc2)c1=S`, 94 to 96 °C.

Compound `N#CCNC(=O)c1ccc(Cl)cc1` showed a melting point of 185 °C. Regarding `O=C(Nc1cc2c(cn1)[nH]c1ccccc12)c1cccs1`, the melting point is 109 to 125 °C.

`Cc1ccc(OC(=O)CCCC(=O)OOC(C)(C)C)cc1` registered a melting point of 50 to 55 °C. The figure for `CC(C)CCSc1cc(C(=O)O)cc(S(=O)(=O)Cl)c1Oc1ccccc1` is 168 to 169 °C.

In the case of `Cc1cc(C(O)c2ccccc2)sc1C` (configuration not stated), the melting point lay within 79 to 80 °C.

`O=C(Cc1cccnc1)c1ccc2c(c1)CCC2` registered a melting point of 55 to 56 °C. On to `CCCc1nc(N2CCc3ccccc3CC2)c(C#N)c(=O)n1CC(F)(F)F`, for which the melting point lay in the range of 104 to 106 °C. Turning to `CCOCCCN1C=Cc2cc(S(N)(=O)=O)sc2S1(=O)=O`, the melting point is 131 to 132 °C. With `Nc1nc2c(Cc3cccnc3)c[nH]c2c(=O)[nH]1`, the melting point is above 300 °C. The compound `COC(=O)c1ccc2[nH]c(C(=O)OCc3ccccc3)cc2c1` showed a melting point of 128 to 129 °C.

`COc1ccc2sc(C(=O)O)nc2c1[N+](=O)[O-]` registered a melting point of 140 to 142 °C. `CC(C)CCOc1ccc(C(=O)C(O)O)cc1` displayed a melting point of 80 to 85 °C.

As for `CC(C)CCCC(O)(Cn1cncn1)C(C)(C)C` (configuration not stated), the melting point lay in the range of 45 to 48 °C.

Regarding `O=[N+]([O-])c1ccc(CP2(=O)OCCCO2)cc1`, the melting point is 144 to 145 °C. Under `O=C(O)CC1(C(=O)OCc2ccccc2)C(=O)N(Cc2ccc(Cl)c(Cl)c2)C(=O)c2cccn21` (configuration not stated) stands 134 to 136 °C; under `Cc1c(N2CCNCC2)nn2c(-c3ccncc3)c(-c3ccc(F)cc3)nc2c1C`, 233 to 235 °C; under `O=c1ccn(-c2ccccc2N2CCOCC2)nc1-c1ccnn1-c1ccccc1`, 200 to 201 °C. Under `COCCn1nc(-c2ccc(C(C)(C)C)cc2)cc1C(=O)NCc1ccc(OC(C)(C)C(=O)O)c(C)c1` stands 112 °C; under `Cc1cccnc1C(=O)c1[nH]c2cc(Cl)ccc2c1NC(=O)CC(C)C`, 142 to 144 °C. Under `CCCCCCCCCCCCCCCCCCSC(C)(C)C(=O)CC(=O)Nc1ccccc1OC` stands 59 to 61 °C; under `CCOc1ccccc1C(C)CC(=O)Nc1sc2c(c1C#N)CCNC2` (racemic), 111 to 115 °C; under `O=C(O)CCCCCCCCn1c(-c2ccccc2)nc(-c2ccccc2)c1-c1ccccc1`, 149 to 150 °C. For the compound `COC(=O)c1ccc(O)c(C2CCCC2)c1`, the melting point is 114 to 116 °C. Under `CC(=O)CC(=O)C=Cc1ccc(O)cc1Cl` stands 125 to 129 °C. The figure for `CCOC(=O)CCCCOc1ccc([N+](=O)[O-])c(/C=C2\CC(=O)NC2=O)c1` is 112 °C; for `Brc1ccc(OCc2ccccn2)cc1/C=C/c1cc(/C=C/c2ccc3cc[nH]c3c2)[nH]n1` it is 100 to 106 °C. `N#Cc1c(Cl)nc2ccc(S(=O)(=O)Cl)cc2c1Cl`: the melting point lay within 168 to 171 °C.

On to `CCCCCCCCCC(=O)Nc1cc(C(=O)O)c2cc[nH]c2c1`, for which the melting point was 248 to 250 °C. Under `CCOC(=O)CC(=O)c1ccc(Br)c(OC)c1F` stands 52 to 53 °C; under `O=C(Nc1ccc2c(c1)CSCC2)OCc1ccccc1`, 109 to 111 °C; under `CCOC(=O)CCCN(C(=O)c1ccc(F)cc1)c1ccccc1-c1ccccc1`, 83 to 84 °C.

`COc1ccc2ccc(NC(=O)c3ccccc3)nc2n1` registered a melting point of 134 °C. Under `CN1CCC(c2c[nH]c3ccc(C4CN=CS4)cc23)CC1` (configuration not stated) stands 158 to 160 °C; under `CCOC(=O)c1cc(Cc2cccc3ccccc23)sc1NCC(C)C`, 57 to 59 °C; under `FC(F)(F)Oc1ccc(-n2cnc3ccc(-c4nnc(N5CCOCC5)o4)cc32)cc1`, 202 to 203 °C. For `Cc1nc(-c2cc3cc(OCCNC[C@H](O)c4cccc(Cl)c4)ccc3o2)no1`, the melting point lay in the range of 88 to 92 °C. Regarding `CCCCCCCCCCCCCCCCCCN(CCCCCCCCCCCCCCCCCC)CCCNC=O`, the melting point fell in the range of 42 to 46 °C. `O=C(Oc1ccc([N+](=O)[O-])cc1)C(O)O` gave a melting point of 100 to 102 °C. The figure for `COc1ccc(N2CCN(c3c(C)c(C)c4c(c3C)C(=O)C(C)(C)O4)CC2)cc1` is 144 to 146 °C; for `Clc1ccc(-c2cc(Cl)n3nccc3n2)cc1` it is 133 to 135 °C; for `CC(=C(F)c1ccccc1)c1ccc2c(c1)C(C)(C)CCC2(C)C` it is 100 °C. With `NCC(CCO)c1ccc(Cl)c(Cl)c1` (single isomer, unassigned; (+)), the melting point is 80 to 81 °C. The figure for `COc1c(C(=O)O)nnn1Cc1ccccc1Cl` is 130 to 135 °C; for `CC1N(CCCCCl)C(=O)C(C)(C)S1(=O)=O` (configuration not stated) it is 71 to 73 °C; for `C[C@@H]1S[C@@H](C(=O)Nc2ccc(CN3CCOCC3)cc2)Cc2cc3c(cc2C1=O)OCO3` it is 172 to 174 °C. Compound `CCCc1nc(Cl)c(-c2ccc(C)cc2)c(Cl)n1` gave a melting point of 91 to 93 °C. For the compound `N#Cc1ccc2c(c1)c1cc(C#N)ccc1n2Cc1ccccc1`, the melting point is 265 to 267 °C. The figure for `Cc1nc[nH]c1CSCCNC(=C[N+](=O)[O-])NN` is 142 °C; for `COc1cc(C)ccc1CNC(=O)C(=O)NCCc1ccc(C)cn1` it is 116 to 117 °C. As for `C#CC(C)(C)Oc1ccc2ncccc2c1`, the melting point fell in the range of 65 to 67 °C. The figure for `Cc1oc(-c2ccccc2)nc1COc1ccc(/C=C/CO)cc1C(F)(F)F` is 152 to 153 °C. The figure for `COc1cccc(NC(=O)c2ccccc2C)c1` is 142 to 143 °C; for `O=C1CC2CS(=O)(=O)c3ccccc3C2=NN1c1ccc(Cl)cc1` (configuration not stated) it is 168 to 170 °C; for `CC1(C)CCC(C)(C)c2cc(-c3cc(CO)cc(-c4ccc(C(=O)O)cc4)c3)ccc21` it is 213 °C.

Compound `COc1cc(-c2nc(NNC(=O)c3cc4c(C)c(C)ccc4n3CCCC#N)nn2CCC2CCCCC2)c(OC)cc1Cl` yielded a melting point of 178 °C.

`CC(C)(CCNS(=O)(=O)c1ccc(Cl)cc1)CC(=O)O` yielded a melting point of 107 to 108 °C. `Cc1oc(-c2ccccc2)nc1CCC(O)c1ccc(CC2OC(=O)NC2=O)cc1` (configuration not stated): the melting point fell in the range of 154 to 155 °C.

The compound `NS(=O)(=O)c1ccc(-c2nc(C(F)(F)F)[nH]c2-c2ccc(F)cc2)cc1` gave a melting point of 259 to 260 °C. Turning to `CCOC(=O)c1cc(OC2COCCC2=O)[nH]n1` (configuration not stated), the melting point fell in the range of 121 to 123 °C. For the compound `CC(=O)NCc1ccc(CC(=NNc2ccc(Br)cn2)c2ccccc2)o1`, the melting point was 176 °C. The compound `COc1ccc(C(=O)CCCCCl)cc1S(=O)(=O)Cl` displayed a melting point of 69 to 70 °C. Take `COCCOc1ccc(/C=C/C(=O)NS(=O)(=O)c2ccccc2)c(Oc2ncc(C(F)(F)F)cc2Cl)c1`: the melting point worked out at 136 °C. `Cc1ccc2c(c1)C(=NNC(=N)N)CC2` showed a melting point above 250 °C. As to `COC(=O)c1c(C)nc(C)c(C(=O)OC)c1-c1ccccc1F`, the melting point fell in the range of 94 to 96 °C. `O=C(O)c1ccc2oc3c(c(=O)c2c1)CCC3=Cc1ccccn1` came in with a melting point of 325 to 328 °C. Under `CCOC(=O)c1cc(/C=C/c2ccc3ccccc3n2)cn1C` stands 140 to 142 °C; under `CCCC(=O)C1=C(O)CC(c2cc(C(C)C)no2)CC1=O` (configuration not stated), 105 to 107 °C; under `CC(C)(CO)NCc1ccccc1`, 46 to 47 °C. Under `Cc1ccc(S(=O)(=O)c2ccc(N3CCN(C)CC3)cc2N)cc1` stands 148 to 151 °C.

Compound `CCOC(=O)C1=C(C)Nc2ncnc(OC(C)C)c2C1c1ccccc1` (configuration not stated) had a melting point of 201 to 202 °C.
